ChEMBL document CHEMBL1201862, “PubChem BioAssay data set” (2004)
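96-well plates; 48 h exposure; 5 concentrations. Endpoints by linear interpolation between flanking doses. Not reached: highest tested concentration assigned. The concentration for 50% growth inhibition is given as GI50.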 Active and inactive are the calls of the source. Rule as the data show it: active = GI50 up to about 1.1 µM and inactive = higher.

What was measured:
Test in all cases: inhibition of tumour cell growth, NCI panel, 48 h
[1] = tested on: OVCAR-3
[2] = tested on: T47D
[3] = tested on: HCC 2998
[4] = tested on: RXF 393
[5] = tested on: SNB-75
[6] = tested on: ACHN
[7] = tested on: PC-3
[8] = tested on: HOP-62
[9] = tested on: K562
[10] = tested on: SK-MEL-2
[11] = tested on: NCI-H522
[12] = tested on: COLO 205
[13] = tested on: UACC-257
[14] = tested on: LOX IMVI
[15] = tested on: A549
[16] = tested on: SNB-19
[17] = tested on: OVCAR-5
[18] = tested on: MDA-MB-435
[19] = tested on: CAKI-1
[20] = tested on: OVCAR-8
[21] = tested on: BT-549
[22] = tested on: RPMI-8226
[23] = tested on: SN12C
[24] = tested on: A498
[25] = tested on: NCI/ADR-RES
[26] = tested on: MCF7
[27] = tested on: NCI-H460
[28] = tested on: KM12
[29] = tested on: SK-MEL-5
[30] = tested on: NCI-H23
[31] = tested on: TK-10
[32] = tested on: Malme-3M
[33] = tested on: U-251
[34] = tested on: EKVX
[35] = tested on: SF-268
[36] = tested on: DU-145
[37] = tested on: UACC-62
[38] = tested on: MDA-MB-231
[39] = tested on: MOLT-4
[40] = tested on: HCT-15
[41] = tested on: SW-620
[42] = tested on: CCRF-CEM
[43] = tested on: NCI-H226
[44] = tested on: UO-31
[45] = tested on: Hs-578T
[46] = tested on: OVCAR-4
[47] = tested on: IGROV-1
[48] = tested on: 786-0
[49] = tested on: SF-539
[50] = tested on: HCT-116
[51] = tested on: MDA-N
[52] = tested on: SK-OV-3
[53] = tested on: M14
[54] = tested on: SK-MEL-28
[55] = tested on: SF-295
[56] = tested on: HT-29
[57] = tested on: HL-60
[58] = tested on: HOP-92

COC(=O)[C@@]1(NC(=O)C(CC(=O)OC(C)(C)C)NC(=O)OC(C)(C)C)C[C@H]1C (stereo partly drawn)
GI50 [1]: > 100 µM (inactive) | GI50 [2]: > 100 µM (inactive) | GI50 [3]: > 100 µM (inactive) | GI50 [4]: > 100 µM (inactive) | GI50 [5]: > 100 µM (inactive) | GI50 [6]: > 100 µM (inactive) | GI50 [7]: > 100 µM (inactive) | GI50 [8]: > 100 µM (inactive) | GI50 [9]: > 100 µM (inactive) | GI50 [10]: > 100 µM (inactive) | GI50 [11]: > 100 µM (inactive) | GI50 [12]: > 100 µM (inactive) | GI50 [13]: > 100 µM (inactive) | GI50 [14]: > 100 µM (inactive) | GI50 [15]: > 100 µM (inactive) | GI50 [16]: > 100 µM (inactive) | GI50 [17]: > 100 µM (inactive) | GI50 [18]: > 100 µM (inactive) | GI50 [19]: > 100 µM (inactive) | GI50 [20]: > 100 µM (inactive) | GI50 [21]: > 100 µM (inactive) | GI50 [22]: > 100 µM (inactive) | GI50 [23]: > 100 µM (inactive) | GI50 [24]: > 100 µM (inactive) | GI50 [25]: > 100 µM (inactive) | GI50 [26]: > 100 µM (inactive) | GI50 [27]: > 100 µM (inactive) | GI50 [28]: > 100 µM (inactive) | GI50 [29]: > 100 µM (inactive) | GI50 [30]: > 100 µM (inactive) | GI50 [31]: > 100 µM (inactive) | GI50 [32]: > 100 µM (inactive) | GI50 [33]: > 100 µM (inactive) | GI50 [34]: > 100 µM (inactive) | GI50 [35]: > 100 µM (inactive) | GI50 [36]: > 100 µM (inactive) | GI50 [37]: > 100 µM (inactive) | GI50 [38]: > 100 µM (inactive) | GI50 [39]: > 100 µM (inactive) | GI50 [40]: > 100 µM | GI50 [41]: > 100 µM (inactive) | GI50 [42]: > 100 µM (inactive) | GI50 [43]: > 100 µM (inactive) | GI50 [44]: > 100 µM (inactive) | GI50 [45]: > 100 µM (inactive) | GI50 [46]: > 100 µM (inactive) | GI50 [47]: > 100 µM (inactive) | GI50 [48]: > 100 µM (inactive) | GI50 [49]: > 100 µM (inactive) | GI50 [50]: > 100 µM (inactive) | GI50 [51]: > 100 µM (inactive) | GI50 [52]: > 100 µM (inactive) | GI50 [53]: > 100 µM (inactive) | GI50 [54]: > 100 µM (inactive) | GI50 [55]: > 100 µM (inactive) | GI50 [56]: > 100 µM (inactive)

Clc1ncnc2c1nc(C#Cc1ccccc1)n2C1CCCCO1 (stereo not drawn)
GI50 [1]: 1.37 µM (inactive) | GI50 [2]: 1.7 µM (inactive) | GI50 [3]: 2.1 µM (inactive) | GI50 [4]: 1.51 µM (inactive) | GI50 [5]: 2.6 µM (inactive) | GI50 [6]: 1.69 µM (inactive) | GI50 [7]: 3.27 µM (inactive) | GI50 [8]: 2.38 µM (inactive) | GI50 [9]: 1.38 µM (inactive) | GI50 [10]: 2.47 µM (inactive) | GI50 [11]: 1.81 µM (inactive) | GI50 [12]: 1.62 µM (inactive) | GI50 [13]: 2.61 µM (inactive) | GI50 [14]: 2.02 µM (inactive) | GI50 [15]: 1.99 µM (inactive) | GI50 [16]: 2.53 µM (inactive) | GI50 [17]: 2.42 µM (inactive) | GI50 [18]: 2.35 µM (inactive) | GI50 [19]: 1.97 µM (inactive) | GI50 [20]: 3.3 µM (inactive) | GI50 [21]: 1.9 µM (inactive) | GI50 [23]: 1.78 µM (inactive) | GI50 [24]: 2.63 µM (inactive) | GI50 [25]: 2.75 µM (inactive) | GI50 [26]: 1.37 µM (inactive) | GI50 [27]: 3.14 µM (inactive) | GI50 [28]: 1.63 µM (inactive) | GI50 [29]: 2.21 µM (inactive) | GI50 [30]: 1.99 µM (inactive) | GI50 [31]: 2.63 µM (inactive) | GI50 [32]: 1.95 µM (inactive) | GI50 [33]: 2.08 µM (inactive) | GI50 [34]: 1.95 µM (inactive) | GI50 [35]: 2.32 µM (inactive) | GI50 [36]: 1.47 µM (inactive) | GI50 [37]: 2.42 µM (inactive) | GI50 [38]: 3.95 µM (inactive) | GI50 [39]: 2.02 µM (inactive) | GI50 [40]: 1.14 µM | GI50 [41]: 1.86 µM (inactive) | GI50 [42]: 2.33 µM (inactive) | GI50 [43]: 2.49 µM (inactive) | GI50 [44]: 1.93 µM (inactive) | GI50 [45]: 3.95 µM (inactive) | GI50 [46]: 1.87 µM (inactive) | GI50 [48]: 1.42 µM (inactive) | GI50 [49]: 1.91 µM (inactive) | GI50 [50]: 1.82 µM (inactive) | GI50 [51]: 1.94 µM (inactive) | GI50 [52]: 7.67 µM (inactive) | GI50 [53]: 2.14 µM (inactive) | GI50 [54]: 2.21 µM (inactive) | GI50 [55]: 4.47 µM (inactive) | GI50 [57]: 2.59 µM (inactive) | GI50 [56]: 1.91 µM (inactive) | GI50 [58]: 1.8 µM (inactive)

COC(=O)c1ccccc1C1CN=NC12Cc1c(ccc(C)c1C)C2=O (stereo not drawn)
GI50 [1]: 45.7 µM (inactive) | GI50 [2]: > 100 µM (inactive) | GI50 [3]: > 100 µM (inactive) | GI50 [4]: > 100 µM (inactive) | GI50 [5]: 22 µM (inactive) | GI50 [6]: > 100 µM (inactive) | GI50 [7]: 90.6 µM (inactive) | GI50 [8]: 57.3 µM (inactive) | GI50 [9]: > 100 µM (inactive) | GI50 [10]: > 100 µM (inactive) | GI50 [11]: > 100 µM (inactive) | GI50 [12]: > 100 µM (inactive) | GI50 [13]: > 100 µM (inactive) | GI50 [14]: > 100 µM (inactive) | GI50 [15]: > 100 µM (inactive) | GI50 [16]: 85.9 µM (inactive) | GI50 [17]: > 100 µM (inactive) | GI50 [18]: > 100 µM (inactive) | GI50 [19]: > 100 µM (inactive) | GI50 [20]: 61.1 µM (inactive) | GI50 [21]: > 100 µM (inactive) | GI50 [23]: > 100 µM (inactive) | GI50 [24]: > 100 µM (inactive) | GI50 [25]: > 100 µM (inactive) | GI50 [26]: > 100 µM (inactive) | GI50 [27]: > 100 µM (inactive) | GI50 [28]: > 100 µM (inactive) | GI50 [29]: > 100 µM (inactive) | GI50 [30]: > 100 µM (inactive) | GI50 [31]: > 100 µM (inactive) | GI50 [32]: > 100 µM (inactive) | GI50 [33]: 48.3 µM (inactive) | GI50 [34]: > 100 µM (inactive) | GI50 [35]: 39.1 µM (inactive) | GI50 [36]: > 100 µM (inactive) | GI50 [37]: > 100 µM (inactive) | GI50 [38]: 81.5 µM (inactive) | GI50 [39]: > 100 µM (inactive) | GI50 [40]: > 100 µM | GI50 [41]: > 100 µM (inactive) | GI50 [42]: > 100 µM (inactive) | GI50 [43]: > 100 µM (inactive) | GI50 [44]: > 100 µM (inactive) | GI50 [45]: 80.9 µM (inactive) | GI50 [46]: 42.3 µM (inactive) | GI50 [47]: > 100 µM (inactive) | GI50 [48]: 38.4 µM (inactive) | GI50 [50]: > 100 µM (inactive) | GI50 [51]: > 100 µM (inactive) | GI50 [52]: 72.8 µM (inactive) | GI50 [53]: > 100 µM (inactive) | GI50 [54]: > 100 µM (inactive) | GI50 [55]: > 100 µM (inactive) | GI50 [57]: > 100 µM (inactive) | GI50 [56]: > 100 µM (inactive) | GI50 [58]: 21.3 µM (inactive)
